{"source": "patent US11065211B2", "about": "“Isoxylitones mediated neurogenesis” (priority 2018, dated 2021)", "system": "cortical cells and hippocampal cells", "test": "MTT assay, in vitro screening of compounds for cell proliferation activity", "assay_type": "cell-based, rat", "details": "24 hrs treatment", "text": "The Tetrazolium MTT [3-(4, 5-dimethyl thiazol-2-yl)-2,5-diphenyl tetrazolium bromide] Assay: MTT assay was used to screen various compounds for their proliferating effect on cortical cells and hippocampal cells. The principle of MTT test is based on the ability of live cells to form insoluble purple formazan product from the breakdown of the water soluble yellow tetrazolium salt by mitochondrial enzyme succinate dehydrogenase (Mosmann, 1983). The resulting intracellular purple formazan can quantify by spectrophotometric means. The MTT Cell Proliferation Assay measures the cell proliferation rate and conversely, when metabolic events lead to apoptosis or necrosis, the reduction in cell viability.\nThe density of the cortical and hippocampal cells was adjusted at the density 2×10^5 cells/mL in complete DMEM medium (5% FBS). The cells (5000/well) were then plated in 96-wells plate and incubated for 24 hrs at 37° C. with 5% CO2. Following 24 hrs incubation, media was removed and 100 μL of each test compounds in DMEM media (5% FBS) were added. […] The culture plates were re-incubated for 24 hrs at 37° C. in 5% CO2. Cells treated with 0.1% DMSO in complete media (5% FBS) were used as vehicle controls. […] The absorbance was read at 495 nm on spectrophotometer. […] The percent rate of proliferation was calculated using the following formula, % rate of proliferation={(At−Ab)/(Ac−Ab)}×100"}
{"smiles": "CC1=CC(=CC(=O)O)CC(C)(C)C1", "note": "(mixture of isomers) [acid analog, (E/Z)-2-(3,5,5-trimethylcyclohex-2-enylidene)acetic acid]", "values": [{"measurement": "activity on the cell proliferation (MTT screening)", "value": "significant potent activity of isoxylitones followed by acid analog"}]}
